Reference: patent publication US20260158149A1, “GLYCOSYLATED PRODRUGS” (UNIVERSITEIT LEIDEN, priority 2021, published 2026)

What was measured:
[1] = system: neutrophils migrated to the wounded area; assay: Tail fin amputation assay: neutrophil migration to the wounded area; format: in vivo, Zebrafish (Danio rerio)
[2] = system: Gr; assay: Transactivation activity of Gr in Tg(9xGCRE-HSV.UI23:EGFP) reporter line; format: in vivo, Zebrafish (Danio rerio); conditions: 24 h treatment, 3 dpf larvae
Summary of the method: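 Zebrafish embryos carrying a nine-GRE promoter driving EGFP were treated with compounds at 2 dpf for 24 h, 15 embryos per group. Read-out was integrated EGFP intensity in larvae, measured by fluorescence stereomicroscopy.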

[3] = system: Gr target genes fkbp5, pck1 and nfkbiaa; assay: qPCR of Gr target genes fkbp5, pck1, nfkbiaa; format: in vivo, Zebrafish (Danio rerio)
Summary of the method: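 mRNA came from pools of 15 zebrafish larvae at 3 dpf or from HeLa cells, was DNase-treated and reverse-transcribed from 1 μg RNA. SYBR Green qPCR was run for 40 cycles with 60 °C annealing. Ct values were normalised to ppial (zebrafish) or 18S rRNA (human), giving fold change versus the control group by ΔΔCt.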

[4] = molecular target: T1, human GR (Homo sapiens, UniProt P04150); assay: PolarScreen Glucocorticoid Receptor Competitor Assay
T1 sequence (P04150 1-777): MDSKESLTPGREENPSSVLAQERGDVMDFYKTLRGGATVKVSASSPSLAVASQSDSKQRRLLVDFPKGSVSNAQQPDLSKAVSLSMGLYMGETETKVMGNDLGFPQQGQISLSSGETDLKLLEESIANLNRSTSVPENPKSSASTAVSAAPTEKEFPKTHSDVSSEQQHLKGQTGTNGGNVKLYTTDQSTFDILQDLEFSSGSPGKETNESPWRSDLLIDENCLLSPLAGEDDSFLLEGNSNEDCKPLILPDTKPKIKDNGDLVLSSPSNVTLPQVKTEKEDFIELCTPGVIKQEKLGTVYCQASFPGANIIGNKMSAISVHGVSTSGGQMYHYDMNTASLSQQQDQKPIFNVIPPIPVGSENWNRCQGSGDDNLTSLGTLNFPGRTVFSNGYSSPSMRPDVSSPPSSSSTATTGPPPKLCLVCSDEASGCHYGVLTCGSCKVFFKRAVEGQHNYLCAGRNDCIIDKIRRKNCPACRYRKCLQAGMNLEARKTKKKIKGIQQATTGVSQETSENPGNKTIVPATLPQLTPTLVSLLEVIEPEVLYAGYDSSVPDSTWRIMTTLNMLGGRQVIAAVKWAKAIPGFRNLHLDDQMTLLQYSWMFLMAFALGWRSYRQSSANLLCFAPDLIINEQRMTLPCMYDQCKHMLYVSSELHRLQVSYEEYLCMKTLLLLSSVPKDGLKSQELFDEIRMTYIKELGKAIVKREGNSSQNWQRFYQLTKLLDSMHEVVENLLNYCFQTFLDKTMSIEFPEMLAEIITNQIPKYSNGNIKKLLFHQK

Structure (SMILES): C[C@]12C=CC(=O)C=C1CC[C@@H]1[C@@H]2[C@@H](O)C[C@@]2(C)[C@H]1CC[C@]2(O)C(=O)CO[C@@H]1O[C@H](CO[C@@H]2O[C@H](CO)[C@@H](O)[C@H](O)[C@H]2O)[C@@H](O)[C@H](O)[C@H]1O [GbPdn, 21-O-Gentobiose-Prednisolone]
- reduction in neutrophil migration in the presence of MZ31 ([1]; GBA2 inhibitor MZ31): abolished by MZ31
- migration of neutrophils towards the wounded area ([1]; wild type larvae, 4 h after tail wounding): decrease in the migration of neutrophils
- transactivation activity of Gr (GFP signal in GRE:GFP reporter fish line) [2]: neither GPdn nor GbPdn induced the transactivation activity of the Gr
- expression of Gr target genes fkbp5, pck1 and nfkbiaa [3]: lack of effect
- decrease in the binding affinity relative to Pdn [4]: ~1400 fold
